Experiments:
[1] = biological target: T1, mouse sEH (Mus musculus, UniProt P34914); test: mouse sEH inhibition assay; format: biochemical
T1 sequence (P34914 1-554): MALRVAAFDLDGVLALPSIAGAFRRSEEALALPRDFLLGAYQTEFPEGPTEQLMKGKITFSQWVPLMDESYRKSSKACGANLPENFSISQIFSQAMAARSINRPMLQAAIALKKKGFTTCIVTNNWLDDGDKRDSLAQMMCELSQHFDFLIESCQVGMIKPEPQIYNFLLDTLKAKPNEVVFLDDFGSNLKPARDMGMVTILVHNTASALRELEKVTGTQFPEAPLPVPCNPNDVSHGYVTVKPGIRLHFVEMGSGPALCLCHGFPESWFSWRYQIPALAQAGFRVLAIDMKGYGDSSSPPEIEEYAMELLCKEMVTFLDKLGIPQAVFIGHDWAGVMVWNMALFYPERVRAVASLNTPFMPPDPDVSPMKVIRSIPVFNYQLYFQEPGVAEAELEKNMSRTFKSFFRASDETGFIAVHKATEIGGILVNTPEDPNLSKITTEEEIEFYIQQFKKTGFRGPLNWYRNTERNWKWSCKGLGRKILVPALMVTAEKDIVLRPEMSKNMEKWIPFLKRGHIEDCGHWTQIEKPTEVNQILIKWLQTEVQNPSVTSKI

[2] = plasma stability assay, human plasma; format: in vitro ADME; details: pH 7.4
[3] = plasma stability assay, rat plasma; format: in vitro ADME; details: 37 °C, pH 7.4, 0-120 min
[4] = system: formalin-induced orofacial pain in female rats; details: doses ranging from 0.5 to 5 mg/kg; cited from earlier work

Question: With Cc1ccc(-c2csc(-c3ccc(NC(=O)C4CCN(S(=O)(=O)c5ccccc5Cl)CC4)cc3)n2)cc1 [SW-17, 1-((2-chlorophenyl)sulfonyl)-N-(4-(4-(p-tolyl)thiazol-2-yl)phenyl)piperidine-4-carboxamide] as the compound, how does the “activity in mouse sEH inhibition assay (in words)” value [1] read?
Answer: weak inhibitor

Question: And the half-life at 5 μM [2]?
Answer: 410 min

Question: And the Half-life ([3]; 5 μM)?
Answer: 31.1 min

Question: What about the half-life at 5 μM ([3]; rat, plasma, pH 7.4, Half-life) of the same compound?
Answer: ~30 min

Question: Which “effect on formalin-induced orofacial pain” value [4] does the source give for CNS(=O)(=O)Cc1ccc2[nH]cc(CCN(C)C)c2c1 [sumatriptan] here?
Answer: inhibit formalin-induced orofacial pain

Source: PMC11379592 (BBA Advances, 2024)
